In paper PMC4305287, “Two Novel α7 Nicotinic Acetylcholine Receptor Ligands: In Vitro Properties and Their Efficacy in Collagen-Induced Arthritis in Mice” (PLoS ONE, 2015):
Like-named read-outs stand apart in the source and are kept apart here.

Molecular target: T1, α4β2 nAChR (Homo sapiens, UniProt P17787+P43681)
T1 construct: expressed in transfected cells; host or cells: Xenopus laevis oocytes injected with subunit cRNAs; clones from Dr. Jon Lindstrom
Assay: ion channel assay on α4β2 nAChR in Xenopus oocytes
Format: biochemical
Conditions: data not shown
Procedure: Human nAChR receptor clones were obtained from Dr. Jon Lindstrom (University of Pennsylvania, Philadelphia, PA). The RIC-3 clone was obtained from Dr. Millet Treinin (Hebrew University, Jerusalem, Israel). Subsequent to linearization and purification of cloned cDNAs, RNA transcripts were prepared in vitro using the appropriate mMessage Machine kit from Ambion Inc. (Austin, TX).
The preparation of Xenopus laevis oocytes for RNA expression was conducted as previously described. Stage 5 oocytes were isolated and injected with […] (5–20 ng) of each subunit cRNAs. Recordings were conducted 2–5 days after injection. […]
Each oocyte received two initial control applications of 300 μM ACh, followed by the experimental drug application, and subsequent control application of 300 μM ACh, unless otherwise indicated. Responses to experimental drug applications were determined relative to the preceding ACh control responses in order to normalize the data, compensating for the varying levels of channel expression among the oocytes. Responses for α7 nAChR were calculated as net charge, since peak currents inaccurately report the agonist concentration dependence of α7 nAChR-mediated responses. […]

T1 sequence (P43681 29-627 limits assumed): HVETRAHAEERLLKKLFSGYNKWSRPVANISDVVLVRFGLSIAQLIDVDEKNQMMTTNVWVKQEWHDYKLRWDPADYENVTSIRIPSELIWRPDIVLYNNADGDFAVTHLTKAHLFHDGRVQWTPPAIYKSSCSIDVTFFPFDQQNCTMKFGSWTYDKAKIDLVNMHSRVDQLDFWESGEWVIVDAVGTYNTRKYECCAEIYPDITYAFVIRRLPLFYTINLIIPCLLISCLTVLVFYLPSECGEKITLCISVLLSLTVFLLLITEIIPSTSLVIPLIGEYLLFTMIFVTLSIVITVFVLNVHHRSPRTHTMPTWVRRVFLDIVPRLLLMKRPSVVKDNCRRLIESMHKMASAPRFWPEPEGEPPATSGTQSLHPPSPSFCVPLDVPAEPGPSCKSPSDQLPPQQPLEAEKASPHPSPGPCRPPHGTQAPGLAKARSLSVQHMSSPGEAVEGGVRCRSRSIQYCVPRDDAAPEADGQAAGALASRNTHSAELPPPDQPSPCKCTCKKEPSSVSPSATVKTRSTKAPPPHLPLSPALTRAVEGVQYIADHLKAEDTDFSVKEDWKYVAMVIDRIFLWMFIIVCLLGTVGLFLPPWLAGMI
T1 sequence (P17787 26-502): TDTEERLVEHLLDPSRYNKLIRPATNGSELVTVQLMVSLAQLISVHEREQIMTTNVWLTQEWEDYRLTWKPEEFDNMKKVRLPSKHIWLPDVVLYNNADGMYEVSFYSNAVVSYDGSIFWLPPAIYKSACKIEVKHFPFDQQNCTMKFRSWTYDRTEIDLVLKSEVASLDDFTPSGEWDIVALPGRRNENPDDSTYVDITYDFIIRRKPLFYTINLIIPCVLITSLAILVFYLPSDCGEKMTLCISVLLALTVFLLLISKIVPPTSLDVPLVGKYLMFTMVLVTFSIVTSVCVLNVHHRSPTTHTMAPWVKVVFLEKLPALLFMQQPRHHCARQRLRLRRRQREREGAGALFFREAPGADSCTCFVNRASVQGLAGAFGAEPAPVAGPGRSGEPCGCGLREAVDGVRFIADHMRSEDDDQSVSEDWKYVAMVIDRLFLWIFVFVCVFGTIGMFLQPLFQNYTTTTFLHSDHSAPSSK

c1cncc(OC[C@@H]2CNCCN2c2nc3ncccc3o2)c1 [PMP-311, (S)-2-(2-((Pyridin-3-yloxy)methyl)piperazin-1-yl)oxazolo[4,5-b]pyridine]
IC50 (read-out: IC50, antagonist of α4β2 nAChR): ~20 nM | IC50 (ion channel assay, read-out: IC50, inhibition of α4β2 nAChR): < 1000 nM
